Residues, ends and D or L forms follow the SMILES beside them.
Row | melting point [°C] | Compound
1 | 114 to 116 | COc1ccc2c(c1)C(=O)C(Cc1cccc(NS(=O)(=O)C(F)(F)F)c1)CO2 (stereo unspecified)
2 | 137 to 138 | O=c1c(-c2cccc(C(F)(F)F)c2Cl)nn(CCCCC(F)(F)F)c2cccc(Cl)c12
3 | 138 to 140 | CCN(c1ccc(Cl)cc1C#N)S(=O)(=O)c1ccc(C)cc1
4 | 94 to 96 | O=C(O)c1cc(C(c2cc(F)ccc2F)S(=O)(=O)c2ccc(Cl)cc2)c(Cl)cn1 (stereo unspecified)
5 | 65 to 67 | COC(=O)C1=C(C)NC(C)=C(C(=O)OCCOc2cccc(CCNCC(O)COc3ccc(COCCOC(C)C)cc3)c2)C1c1cccc([N+](=O)[O-])c1 (stereo unspecified)
6 | 117 | CN(C)C(=O)N1N=C2c3cc(F)ccc3OC[C@@H]2[C@@H]1c1ccccc1 (racemic)
7 | 213 to 215 | O=C(O)Cc1cc(=O)[nH]c2ccccc12
8 | 97 to 103 | COC(=O)c1ccc2nc(C)[nH]c2c1C(=O)OC
9 | 256 | O=C(O)c1cc(=O)cc(C=Cc2ccc(O)cc2)o1
10 | 115 to 116 | COC(NC(C)=O)(C(=O)OC(C)(C)C)C(Br)Br (stereo unspecified)
11 | 105 to 107 | CCOC(=O)CCn1ccn([C@H]2CCc3c(F)cc(F)cc3C2)c1=S
12 | 160 | Cc1cccc(NC(=O)NCC(=O)N(CC(=O)OC2(C)CCCC2)c2ccccc2)c1
13 | 118 to 119 | C[C@H](NC(=O)OCc1ccccc1)C(=O)N[C@@H](Cc1ccccc1)C(=O)OCc1ccccc1
14 | 100 to 103 | CCOC(C)c1cc(C(=O)OC)c(N)cc1C(F)(F)F (stereo unspecified)
15 | 150 to 152 | CC(C)Sc1c(C(N)=O)sc2ccc(OCc3ccccc3)cc12
16 | 184 to 185 | O=[N+]([O-])C1=CN(Cc2ccccc2)C2C([N+](=O)[O-])=CN(Cc3ccccc3)C1N2Cc1ccccc1
17 | 113 to 115 | CC(=O)N(C)CC#CCn1ccnc1
18 | 164 | N#Cc1c(N2CCc3ccccc3CC2)nc(CCO)n(CCO)c1=O
19 | 154 to 158 | CCCCOC(=O)C(CC(=O)O)NCCCN(C)C (stereo unspecified)
20 | 69 to 71 | O=C(Nc1ccc(OCc2ccncc2)c2ccccc12)c1cc(F)cc(N2CCCCC2)c1
21 | 78 to 79 | CCOCc1cc2ccccc2oc1=Nc1ccc(OC)cc1
22 | 231 to 232 | COc1ccc(CS(=O)(=O)c2cc3ccc(O)cc3oc2=O)cc1
23 | 71 to 71.5 | Cc1cccc2c1CCN=C2c1ccc(F)cc1
24 | 108 to 110 | CCOC(=O)c1ccc(CCC(=O)O)cc1
25 | 156 to 157 | CCOc1cccc(CC(=O)O)c1OCCCc1cn(-c2ccc(C(F)(F)F)cn2)nc1C1CCCCC1

Row | melting point [°C] | Compound
26 | 47 to 51 | CCOC(OCC)C(N)=O
27 | 182 to 183 | O=C1CCCc2c1c1cc(F)ccc1n2Cc1ccc(F)cc1
28 | 93 to 95 | COC(=O)c1ccccc1COc1cccc2oc(C)cc12
29 | 122 to 123 | O=C1/C(=C(\NC2CCCCC2)c2ccccc2)Sc2ccccc21
30 | 234 to 236 | COc1cc(Nc2c(C#N)cnc3c2sc2ccccc23)c(Cl)cc1Cl
31 | 175 to 177 | CCOC(=O)c1cnc(Nc2ccccc2OCC(C)C)[nH]c1=O
32 | 75 | COC(=O)[C@H](O[Si](C)(C)C)[C@@H](O[Si](C)(C)C)C(=O)OC
33 | 71 to 72.5 | N#Cc1cc(F)c(F)c(Br)c1Cl
34 | 287 to 289 | CC1=Nc2c(Br)cc(Br)cc2S(=O)(=O)N1
35 | 161 | c1ccc(COc2ccc3ccc(OCc4ccccc4)cc3c2)cc1
36 | 255 to 258 | O=S1(=O)c2ccccc2N(c2cc(F)cc(F)c2)c2ccccc21
37 | 45 to 50 | OC1CCCNC1CN1CCCC1 (stereo unspecified)
38 | 120 | ON=C1CCC(c2ccccc2F)c2ccccc21 (stereo unspecified)
39 | 154 to 155 | Cc1c(C(=O)N[C@H](C)[C@](O)(Cn2cncn2)c2ccc(F)cc2F)cnn1-c1ccc(Cl)cc1
40 | 92 to 93 | CCN1C[C@@H](C(=O)OC(C)(C)C)N(C(=O)[C@H](C)CSC(=O)c2ccccc2)C1=O
41 | 124 to 126 | COc1ccc(N(C)c2nccc(-c3ccncc3)n2)cc1
42 | 68 | O=S(=O)(Cl)c1ccc(Cl)c(CCl)c1Cl
43 | 118 to 120 | N#Cc1cc(C(=O)NNC(=O)c2occc2-c2ccccc2OCc2ccccc2)ccc1O
44 | 255 to 258 | COC(=O)Cn1c(=O)[nH]c(=O)c2ccc(Cl)cc21
45 | 192 to 193 | N#Cc1ccc(N(Cc2ccc(O)c(Cl)c2)n2cnnc2)cc1-c1ccoc1
46 | 153 to 155 | O=C(CN1CCN(C(=O)Nc2ccc(C(F)(F)F)cc2)CC1)N1CCC2(CC1)Cn1cc([N+](=O)[O-])nc1O2
47 | 91 to 92 | COC(=O)NCCOc1cc(Oc2ccc(C(F)(F)F)cc2Cl)ccc1[N+](=O)[O-]
48 | 192 | O=C1C=C(O)CC(c2ccc3sccc3c2)C1 (stereo unspecified)
49 | 162 to 165 | CCOC(=O)Cn1c2cccccc-2c(C(C)=O)c1=O
50 | 159 to 162 | CCOC(=O)C(Cc1c[nH]c2c(Cl)cccc12)(NC=O)C(=O)OCC

Row | melting point [°C] | Compound
51 | 87.5 to 92 | CC=CCOc1ccc(C)c2c1C(=O)CC2
52 | 197 to 200 | CCOc1cc(OCC)nc(-c2nsc3ccc(-n4c(=O)cc(C(F)(F)F)n(C)c4=O)cc23)n1
53 | 59 to 60 | C=C(C)C(=O)OCCOc1ccc(-c2ccccc2)cc1
54 | 125 to 126 | CC(=O)c1ccc(Nc2cnc3c(NCc4ccccc4)nc(NCCO)nc3c2)cc1
55 | 126 to 130 | COC(=O)c1ncnn1Cc1ccc([N+](=O)[O-])cc1
56 | 173 to 175 | O=C(CCl)NC(C(=O)O)c1ccc2c(c1)CCS2 (stereo unspecified)
57 | 207 to 210 | O=C(O)COc1cccc2c1Cc1sc(SCC(c3ccccc3)c3ccccc3)nc1-2
58 | 120 | CC(C)(C)OC(=O)C1CSC(c2cccc(F)c2F)N1 (mixture of isomers)
59 | 150 to 152 | CC(C)(O)[C@H](CO)NC(=O)[C@@H](CC(=O)O)n1ccc(-c2ccc(-c3ccccc3)cc2)c1
60 | 68 to 70 | CCOC(=O)CN(C(=O)N1CCN(c2cc(C)cc(C)c2)CC1)c1cc(C(C)O)c(C)nc1OC (stereo unspecified)
61 | 90.5 to 91.5 | CN(C)CCSc1nnc(SCN2C(=O)c3ccccc3S2(=O)=O)s1
62 | 99.1 to 99.2 | COCCCOc1ccc(CCC(=O)O)c(Oc2ncc(C(F)(F)F)cc2Cl)c1
63 | 219 to 222 | O=S1(=O)N=CN(C2CCCCC2)c2cc(Cl)c(Cl)cc21
64 | 131 to 133 | CC(C)c1nc(C(C)C)c(CNC2CCCCC2)c(-c2ccc(F)cc2)c1CO
65 | 256 to 257 | CC(C)(C)OC(=O)Nc1cc(-c2nnc(CCc3cccc(C(F)(F)F)c3)o2)ccn1
66 | 85.8 | Clc1nc2c(-c3ccccc3)cccc2o1
67 | 58 to 64 | CCCSc1ccccc1S(N)(=O)=O
68 | 85 to 86 | CCCCCCCCCCOc1ccc(-c2ccc(OCCCCCCCCCC)c(OCCCCCCCCCC)c2)cc1OCCCCCCCCCC
69 | 50 to 55 | S=C=NCCCN1CCC(c2ccccc2)CC1
70 | 201 to 203 | O=C(O)C1C2C=CC(C2)C1NS(=O)(=O)c1ccc(OCc2ccccc2)cc1 (stereo unspecified)
71 | 172 to 174 | O=S(=O)(CC(F)(F)F)c1nc2ccccc2[nH]1
72 | 143 to 145 | COC(=O)C(CC(C)C)NC(=O)c1cc([N+](=O)[O-])cc([N+](=O)[O-])c1 (stereo unspecified)
73 | 199 to 200 | COC(=O)c1ccccc1N=CNc1nnn[nH]1
74 | 173 to 174 | O=C(O)CCCc1cc2nc(Cl)ccc2n1S(=O)(=O)c1cccc(Cl)c1Cl
75 | 59 to 61 | CC(=O)Oc1ccc([C@@H]2O[C@H]2CO)cc1

Row | melting point [°C] | Compound
76 | 115 to 117 | Cc1cccc(-c2[nH]c(C(C)C)nc2-c2cccc(-c3ccc4c(c3)CCCS4)c2)n1
77 | 278 to 280 | CS(=O)(=O)C(CC(S(C)(=O)=O)S(C)(=O)=O)S(C)(=O)=O
78 | 71 to 73 | CCCCc1cc2cc(NC(C)=O)ccc2o1
79 | 130 to 133 | CS(=O)(=O)c1ccc(C(CC2CCCC2)C(=O)Nc2cnc(C(C#N)=NO)cn2)cc1Cl (stereo unspecified)
80 | 173 to 175 | O=c1ccc(-c2ccccc2F)n[nH]1
81 | 131 to 133 | CCOC(=O)c1cccc(C2COc3cc(O)c(O)cc3C2)c1 (stereo unspecified)
82 | 134 to 136 | CCCCOC(=O)c1ccc2c(c1)C(=O)NC(C(Cl)(Cl)Cl)O2 (stereo unspecified)
83 | 117 | Fc1ccc(OCCN2CCC(CNc3nc4ccccc4s3)CC2)cc1
84 | 133 to 135 | COC(=O)c1ccc2nc3c(nc2c1)SC(C#N)=C(C#N)S3
85 | 196 to 200 | CCc1nn(Cc2cccnn2)c(C(N)=O)c1NC(=O)c1cc(S(C)(=O)=O)ccc1OCC(C)C
86 | 36 to 58 | CCc1cc2c(SCC(=O)OC)ncnc2s1
87 | 120 to 124 | CC(=O)N=C(OC(C)=O)N1CCSC1c1ccccc1OCCN1CCN(c2ccccc2)CC1 (stereo unspecified)
88 | 124 to 127 | NC(=O)CNC(=O)[C@@H]1CCCN1 (H-Pro-Gly-NH2)
89 | 103 to 105 | C#CC1(O)CCc2c(OC)ccc(OC)c2C1 (stereo unspecified)
90 | 89 to 90 | CC1=NN(C)C(=O)C1(Br)C(=O)c1ccc(Cl)cc1Cl (stereo unspecified)
91 | 97 to 98 | COC(=O)C1=C(C)N(CCCc2ccccc2)C(C)=C(C(=O)OC)C1c1ccc(OC)c(OC)c1
92 | 128 to 132 | Cc1cc(SC2=C(O)C[C@@](CCc3cccc(O)c3)(C3CCCC3)OC2=O)c(C(C)(C)C)cc1CO
93 | 132 to 133 | C[Si](C)(CCO)Cc1ccccc1
94 | 109 | Cc1nc2ccccn2c(=O)c1CCN1CCC(=C(c2ccc(F)cc2)c2ccc(F)cc2)CC1
95 | 130 to 131 | CC(CCCO)C1CCC2C3CC=C4CC(OC5CCCCO5)CCC4(C)C3CCC12C (stereo unspecified)
96 | 125 to 130 | COCCc1nc2c(N)nc3ccccc3c2n1CC(C)(C)CNC(=O)Nc1ccccc1
97 | 110 to 112 | O=c1cc(CO)oc2cc(OCCCCl)ccc12
98 | 112 to 113 | COc1cc(N)ccc1OCCCN1CCN(c2ccccc2)CC1
99 | 65 to 66 | N#CN(c1ccccc1)S(=O)(=O)c1ccccc1
100 | 131 to 133 | CCCCCS(=O)(=O)NC(=O)CCc1cc(OCCCC)nn1Cc1ccc(C(F)(F)F)cc1Cl

Row | Compound | melting point [°C]
101 | Cc1nc2cc(NC(=O)c3cc4cc(C(F)(F)F)cnc4n3Cc3cccc(F)c3)ccc2s1 | 204 to 206

Reference: a melting point compilation (Tetko et al.; mined from patent text by program, amines drawn as free bases though some values may be those of a salt)
